Key:
HMGN1 [1] = test: HMGN1 ELISA in culture medium of A549 cancer cells (Example 12, Table 66); type: cell-based, human; conditions: Homo sapiens, A549, doxorubicin-induced senescent A549 cells, test compound 30 μM, ELISA, DMSO = 100; read-out: HMGN1 (amount of HMGN1 secreted in the cell culture)
p16, MMP3, IL6 = p16, MMP3, IL6 mRNA qRT-PCR in groin fat of obese mice given senescent cells killed by test compounds (Example 16, Table 72); type: in vivo, C57BL6J mice; conditions: obese mice administered senescent cells whose death was induced by the test compound
Text: To obtain preadipocytes, groin fat tissue was collected from an 8-week-old female C57BL6J mouse (purchased from KRIBB Laboratory Animal Resource Center). The fat tissue was cut into small pieces and treated with collagenase to decompose the fat tissue, then centrifuged to collect the stromal vascular fraction (SVF) containing preadipocytes. It was washed with a washing medium (HBSS, purchased from GenDEPOT; 3.5% Albumin Fraction V, purchased from GenDEPOT; 100 U/ml Penicillin & Streptomycin, purchased from Invitrogen), mixed again, and extracted by filtering through a 100 μm nylon mesh. The isolated preadipocytes were cultured in the designated medium (DMEM, purchased from GenDEPOT; 20% FBS, purchased from GenDEPOT; 100 U/ml Penicillin & Streptomycin, purchased from Invitrogen). In the same manner as Example 1, cells were treated with doxorubicin at a concentration of 250 nM for 24 hours and cultured for an additional 21 days to induce cell senescence. Cells were treated with doxorubicin at a concentration of 250 nM for 24 hours and cultured for an additional 21 days to induce cell senescence. By treating the test compounds in the same manner as in Example 13, it was confirmed using an optical microscope that the death of most senescent cells was induced. The killed preadipocytes were washed using PBS (purchased from Welgene) and then mixed with PBS at a concentration of 5×10^5 cells/200 μl. It was administered subcutaneously to 8-week-old female C57BL6J mice (purchased from KRIBB Laboratory Animal Resource Center). At 7 and 10 days after administration of the killed senescent cells, 2 million senescent preadipocytes were mixed in 200 μl of PBS and administered into the abdominal cavity of mice. After administration of killed senescent cells, obesity was induced in mice with a high-fat diet (DIO) for 8 weeks in the same manner as in Example 9-1. Afterwards, the mouse was sacrificed in the same manner as in Example 7-2, total RNA was extracted from the groin fat tissue, and qRT-PCR was performed and analyzed using the synthesized cDNA. […] The mRNA amount of p16, MMP3, and IL6 without administration of senescent cells whose death was induced by the test compounds was calculated as 100%, and the amount of p16, MMP3, and IL6 after administration of the senescent cells whose death was induced by the test compounds was compared with them. Furthermore, an open field test was performed to analyze aging-related frailty in mice using the same method as Example 7-7. […] The amount of activity evaluation without administration of senescent cells whose death was induced by the test compounds was calculated as 100% and compared it with the amount of activity evaluation after administration of senescent cells whose death was induced by the test compounds. […]

HMGN1 [2] = test: HMGN1 ELISA in culture medium of foreskin cells (Examples 10, 11; Tables 62, 63, 64); type: cell-based, human; conditions: Homo sapiens, 30 μM test compound, doxorubicin-treated foreskin cells, DMSO = 100; read-out: HMGN1
[3] = system: foreskin cells in which senescence was induced by doxorubicin; test: CellTiter-Glo cell viability of doxorubicin-induced senescent foreskin cells (Examples 1-2, 10, 11, 13; Tables 4, 63, 65); type: cell-based, human; conditions: Homo sapiens, 72 h, doxorubicin-induced senescent foreskin cells, CellTiter-Glo, 0 μM = 100, read-out: Survival (%); for viability at 1.1 µM: 1.1 μM test compound; for viability at 10 µM: 10 μM test compound; for viability at 30 µM: 30 μM test compound; for viability at […]: […] test compound
Experimental: After 3 days, cell viability was measured using CellTiter-Glo Luminescent Cell Viability Assay (Promega) or light microscopy.

[4] = open field test in obese mice given senescent cells killed by test compounds (Example 16, Table 72); type: in vivo, C57BL6J mice; conditions: obese mice administered senescent cells whose death was induced by the test compound
Text: To obtain preadipocytes, groin fat tissue was collected from an 8-week-old female C57BL6J mouse (purchased from KRIBB Laboratory Animal Resource Center). The fat tissue was cut into small pieces and treated with collagenase to decompose the fat tissue, then centrifuged to collect the stromal vascular fraction (SVF) containing preadipocytes. It was washed with a washing medium (HBSS, purchased from GenDEPOT; 3.5% Albumin Fraction V, purchased from GenDEPOT; 100 U/ml Penicillin & Streptomycin, purchased from Invitrogen), mixed again, and extracted by filtering through a 100 μm nylon mesh. The isolated preadipocytes were cultured in the designated medium (DMEM, purchased from GenDEPOT; 20% FBS, purchased from GenDEPOT; 100 U/ml Penicillin & Streptomycin, purchased from Invitrogen). In the same manner as Example 1, cells were treated with doxorubicin at a concentration of 250 nM for 24 hours and cultured for an additional 21 days to induce cell senescence. Cells were treated with doxorubicin at a concentration of 250 nM for 24 hours and cultured for an additional 21 days to induce cell senescence. By treating the test compounds in the same manner as in Example 13, it was confirmed using an optical microscope that the death of most senescent cells was induced. The killed preadipocytes were washed using PBS (purchased from Welgene) and then mixed with PBS at a concentration of 5×10^5 cells/200 μl. It was administered subcutaneously to 8-week-old female C57BL6J mice (purchased from KRIBB Laboratory Animal Resource Center). At 7 and 10 days after administration of the killed senescent cells, 2 million senescent preadipocytes were mixed in 200 μl of PBS and administered into the abdominal cavity of mice. After administration of killed senescent cells, obesity was induced in mice with a high-fat diet (DIO) for 8 weeks in the same manner as in Example 9-1. Afterwards, the mouse was sacrificed in the same manner as in Example 7-2, total RNA was extracted from the groin fat tissue, and qRT-PCR was performed and analyzed using the synthesized cDNA. […] The mRNA amount of p16, MMP3, and IL6 without administration of senescent cells whose death was induced by the test compounds was calculated as 100%, and the amount of p16, MMP3, and IL6 after administration of the senescent cells whose death was induced by the test compounds was compared with them. Furthermore, an open field test was performed to analyze aging-related frailty in mice using the same method as Example 7-7. […] The amount of activity evaluation without administration of senescent cells whose death was induced by the test compounds was calculated as 100% and compared it with the amount of activity evaluation after administration of senescent cells whose death was induced by the test compounds.

A549 = test: CellTiter-Glo cell viability of senescent A549 cancer cells (Example 12, Table 67); type: cell-based, human; conditions: Homo sapiens, A549, doxorubicin-induced senescent A549 cancer cells, CellTiter-Glo, read-out: Survival (%); for viability at 1.1 µM: 1.1 μM test compound; for viability at 10 µM: 10 μM test compound; for viability at 30 µM: 30 μM test compound

Row | SMILES | activity at 30 µM (HMGN1 [1]) | IL6 mRNA (%) (p16, MMP3, IL6) | MMP3 mRNA (%) (p16, MMP3, IL6) | p16 mRNA (%) (p16, MMP3, IL6) | activity at 30 µM (HMGN1 [2]) | viability at 1.1 µM [3] | Open Field Test Time in Center (%) [4] | viability at 1.1 µM (A549) | viability at 10 µM [3] | viability at 30 µM [3] | viability at […] [3] | viability at 10 µM (A549) | viability at 30 µM (A549)
1 | CCOc1ccccc1-n1c(CN2CCNCC2)nc2ccccc2c1=O [LX-1002] | 296% | 74.4 (±8.5) % | 68.1 (±13.8) % | 77.4 (±8.6) % | 286% | 4.2% | 141.1 (±18.3) % | 47.6% |  |  |  |  | 
2 | C[C@H]1Cc2c([nH]c3ccccc23)[C@H](c2ccc(C(=O)N[C@]34CC5C[C@H](C[C@H](C5)C3)C4)cc2)N1C(=O)CCl [LX-411] | 335% | 71.9 (±7.2) % | 92.7 (±8.1) % | 79.7 (±6.6) % | 300% | 0.2% | 163 (±9) % | 1.8% |  |  |  |  | 
3 | COCC1(CO)C(=O)C2CCN1CC2 (centres unmarked) [LX-701, Eprenetapopt, reference compound] | 297% | 68.2 (±14.3) % | 72.5 (±9.2) % | 81.9 (±6.8) % | 277% | 99.3% | 181.8 (±27.1) % | 99.2% | 45.9% | 27.4% | 100% | 91% | 11.3%
4 | COc1cc(OC)cc(O[C@H]2OC3O[C@@]4(C)CCC5[C@H](C)CCC([C@H]2C)[C@@]35OO4)c1 (some centres unmarked) [LX-502] | 321% | 83.3 (±5.1) % | 77.4 (±8)^ % | 81.7 (±7.8) % | 274% | 59.1% | 126 (±20.4) % | 78.4% |  |  | 10.4% |  | 
5 | CCc1ccc(C(=O)C(C)CN2CCCCC2)cc1 (centres unmarked) [LX-1401, Eperisone, reference compound] | 287% | 72.8 (±10.4) % | 75.1 (±9.4) % | 83.4 (±6.9) % | 296% | 96.4% | 166.7 (±14.8) % | 99% | 10.2% | 9% | 88.1% | 49.9% | 22.8%
6 | CC1(C)CC[C@]2(NC(=O)C(C)(F)F)CC[C@]3(C)[C@H](C(=O)C=C4[C@@]5(C)C=C(C#N)C(=O)C(C)(C)[C@@H]5CC[C@]43C)[C@@H]2C1 [LX-2101, Omaveloxolone, reference compound] | 297% | 75.9 (±6.7) % | 68.3 (±16.4) % | 73.8 (±9.7) % | 274% | 1.8% | 144.9 (±26.6) % | 71.6% |  |  |  |  | 
7 | CCC(C)SSc1ncc[nH]1 (centres unmarked) [LX-307] | 305% | 87.2 (±10.5) % | 76.7 (±7.7) % | 73.1 (±8.5) % | 258% | 101% | 159 (±9.9) % | 101% | 14.5% | 3.5% | 85.6% | 72.5% | 7.6%
8 | Fc1ccc(-n2cc(CCCCN3CCC4(CC3)OCc3ccccc34)c3ccccc32)cc1 [LX-1102, Siramesine, reference compound] | 324% | 76.2 (±7.1) % | 95.4 (±9.6) % | 82.9 (±4.8) % | 271% | 94% | 146.2 (±17.1) % | 99.5% | 3.1% |  | 13.9% | 17.7% | 

From patent publication US20250108036A1, “COMPOSITIONS FOR REMOVING SENESCENT CELLS AND USES THEREOF” (LIFECEUTIX CO., LTD., priority 2021, published 2025)
